Data as given in patent US20150299670A1, “COMBINING GENETIC TRAITS FOR FURFURAL TOLERANCE” (priority 2012, published 2015).
Values after ≈ are worked out from the molar mass of the structure shown.

Experiments:
[1] = tested on: LY180; assay: Batch ethanol fermentation in AM1 medium with furfural; assay type: cell-based, Escherichia coli; conditions: 15 mM furfural, AM1 mineral salts medium, 100 g/L xylose
Method: (§1) FIGS. 4A-C. Comparison of batch fermentations for the parent LY180 and the plasmid-free, furfural-resistant strain XW129. […] For A (cell mass) and B (ethanol and furfural), fermentations were conducted in mineral salt medium AM1 (100 g/L xylose and 15 mM furfural). Control fermentations without furfural were also included. Fermentations (C) were also conducted using hemicellulose hydrolysate containing 36 g/L total sugar, supplemented with AM1 nutrients and 0.5 mM sodium metabisulfite. Data represent averages of at least 2 experiments with standard deviations.
(§2) Ethanol fermentations with xylose were carried out as previously described (17, 22), with and without furfural. For succinate production from xylose, seed pre-cultures of strains were grown in sealed culture tubes containing AM1 medium (20 g/L xylose, 50 mM KHCO3 and 100 mM MOPS). After incubation for 16 h, pre-inocula were diluted into 500-ml fermentation vessels containing 300 ml AM1 media (100 g/L xylose, 1 mM betaine and 100 mM KHCO3) at an initial density of 6.6 mg dry cell weight. After 24 h growth, these seed cultures were used to provide starting inocula for batch fermentations (AM1 medium, 100 g/L xylose and 100 mM KHCO3). Fermentations were maintained at pH 7.0 by automatic addition of base containing additional CO2 (2.4 M potassium carbonate in 1.2 M potassium hydroxide) as previously described (27). Quantitative analyses of sugars, ethanol, furfural, and succinate were as previously described (17, 27, 38).

[2] = tested on: XW129; assay: as above; assay type: cell-based, Escherichia coli; conditions: 15 mM furfural, AM1 mineral salts medium, 100 g/L xylose
Method: as §1, §2

[3] = tested on: XW136; assay: Furfural tolerance in tube cultures; assay type: cell-based, Escherichia coli; conditions: strain XW136 (XW120 with adhE::fucO), AM1 medium, 50 g/L xylose, 48 h
Method: (§3) Furfural toxicity was measured in tube cultures (13 mm by 100 mm) as previously described for ethanol strains (17, 22). For succinate strains, tubes contained 4 ml of AM1 medium with 50 g/L xylose, 50 mM KHCO3, and 100 mM MOPS as a buffer. Tubes were inoculated with starting cell density of 44 mg/L. Cell mass was measured at 550 nm after incubation for 48 h (37° C.).

[4] = tested on: XW120; assay: Furfural tolerance in tube cultures; assay type: cell-based; conditions: Escherichia coli, 48 h, read-out: minimal inhibitory concentration of furfural
Method: as §3

[5] = tested on: XW055; assay: Furfural tolerance in tube cultures; assay type: cell-based; conditions: Escherichia coli, strain XW055, AM1 medium, 50 g/L xylose, 48 h, read-out: minimal inhibitory concentration of furfural
Method: as §3

SMILES: O=Cc1ccco1 [furfural]
- growth and fermentation [1]: completely blocked
- delay of growth [2]: 24 h
- extension of time required to complete fermentation [2]: 6 h
- furfural tolerance [3]: 17.5 mM
- MIC [4]: 15 mM (≈ 1440 µg/mL)
- MIC [5]: 7.5 mM (≈ 721 µg/mL)
